Results on seven compounds are retold here after publication PMC10077545, “Exploration of Antiproliferative Activity and Apoptosis Induction of New Nickel(II) Complexes Encompassing Carbazole Ligands” (ACS Omega, 2023).

The subject of data set [1] is human cervical carcinoma (HeLa). Kind of data set: MTT assay, in vitro cell viability, HeLa. It is filed as cell-based. The note with it: ± standard deviation. On the procedure:
(§1) To study the ability of the prepared ligands and the synthesized complexes in retarding the growth of cancer cell, the MTT assay was performed with human cervical carcinoma (HeLa), human colon carcinoma (HT-29), and non-cancerous L929 (fibroblast) cell lines. As a reference, cisplatin is also examined with all the cell lines for an incubation period of 24 h and as stated in Table 1.
(§2) 2. Experimental Procedures […]
(§3) The cell lines HeLa, HT-29, and L929 were collected from ATCC and the stock cells were cultured in DMEM/ F12 enriched with 10% inactivated Fetal Bovine Serum (FBS), penicillin (100 IU/ml), streptomycin (100 µg/ml) in a humidified atmosphere of 5% carbon dioxide at 37 °C until confluent. The cells were dissociated with cell dissociating solution (0.2 % trypsin, 0.02 % EDTA, 0.05 % glucose in PBS). The viability of the cells have been checked and centrifuged. Further, 50,000 cells /well of […] was seeded in a 96 well plate and incubated for 24 hours at 37 °C, 5 % carbon dioxide incubator.
(§4) The monolayer cell culture has been trypsinized and the cell count was altered to […] using respective media comprising 10% FBS. 100 µL of the diluted cell suspension (50,000 cells/well) was added to each well of the 96 well microtiter plate. When a partial monolayer formed after 24 hours, the supernatant was swiped off and the monolayer has been washed with the medium. 100 µL of various concentrations of complexes have been added on to the partial monolayer in microtiter plates. Then, the […]
(§5) incubation, the test solutions in the wells have been discarded and 100 µL of MTT (5 mg/10 ml of MTT in PBS) was added to each well. The plates have been incubated for four hours at 37 °C in 5% carbon dioxide atmosphere. The supernatant has been removed and 100 µL of DMSO was applied to dissolve the formed formazan. The absorbance was recorded using a microplate reader at 590 nm. The % growth inhibition has been determined using the […]
(§6) Cell viability (%) = (Absorbance of each well/ Absorbance of control well) × 100 […]
(§7) Hoechst 33342 staining method
(§8) 5 × 10^5 HeLa cells have been incubated with IC50 concentration of the complex 4 for 24 hours in a 6-well culture plate and have been fixed with 4% paraformaldehyde followed by permeabilization with 0.1% Triton X-100. Cells were then stained with 50 μg /mL Hoechst 33342 for 30 min at ambient temperature. The cells undergoing apoptosis were observed and visualized by epifluorescence microscope (Carl Zeiss, Germany).

The test system of data set [2] is human colon carcinoma (HT-29). In words: MTT assay, in vitro cell viability, HT-29. The note with it: ± standard deviation. It is filed as cell-based. On the procedure:
as §1, §2, §3, §4, §5, §6, §7, §8

The test system of data set [3] is non-cancerous L929 (fibroblast) cell lines. Kind of data set: MTT assay, in vitro cell viability, L929. The note with it: ± standard deviation. It is filed as cell-based. On the procedure:
as §1, §2, §3, §4, §5, §6, §7, §8

Data set [4] in a line: Partition coefficient (log P), shake-flask, n-octanol-water. In kind it is physicochemical. From the text: The permeability of the drug molecules into a lipid cytomembrane is a prime initiative for designing drugs and its development. The main properties like absorption, transportation, and expulsion of the drugs take control over the chief pharmacokinetic properties. Accordingly, we resolve the permeability of all the complexes with the help of calculated log P values using a n-octanol–water system. Based on the solubility of the complexes in aqueous and organic phases, the log P values are determined.[22]−[24] […] Complexes 3 and 4 display higher permeability characters (log P value) due to the presence of halogen and electron-donating group, respectively. Additionally, the presence of the carbazole moiety in the complexes enhanced the lipophilicity.[25],[26]
2. Experimental Procedures
UV-visible time dependent spectral method has been used to examine the stability of the complexes. Complexes were dissolved in a minimum amount of 1% DMSO and then diluted with PBS buffer to 1×10−3 M concentration. The hydrolysis profiles of the complexes were monitored by their electronic spectra over 72 h.
Partition coefficients determination
The "shake-flask" technique was used to evaluate the lipophilicity of complexes 2 - 4 using octanol/water phase partitions. Double distilled water and analytical grade octanol (Sigma Aldrich) were used to produce octanol-saturated water and water-saturated octanol phases. Complexes 2−4 (1 mg/mL; ethanol/water) have been diluted to 2, 4, 6, 8, and 10 μg/mL in water and alternatively were diluted to 2, 4, 6, 8, and 10 μg/mL in octanol, respectively. Equal volumes (50/50) of the complexes in the proper concentrations […] have been shaken for 24 hours at ambient temperature. The organic and aqueous fractions have been separated and centrifuged when equilibrium was attained. Finally, UV-visible spectroscopy was used to determine the complex concentration in each phase. The concentration of the sample solution was used to calculate the partition coefficients (log P) by using the equation log P = log[(1−3)oct/(1−3)aq]. 4 […]

Data set [5] relates to HeLa cancer cells. Kind of data set: ROS detection (DCFH-DA). It is filed as cell-based, human. The note with it: IC50 concentration, 24 h, control 20 %. The text has this:
ROS, like hydrogen peroxide, superoxide anion, and hydroxyl radical, are produced on mitochondrial oxidative metabolism along with cell’s reaction toward cytokines and bacterial invasion. At low levels of ROS, it could participate in cell signaling. Whereas, at higher levels they might damage (DNA and RNA) and engage in apoptosis via mitochondrial dysfunction.[32] The quantity of ROS is detected with the help of oxidant fluorescent dye. The nonpolar dye DCFH-DA turned out to be deacetylated and transformed into DCFH (polar) by intracellular esterases. However, DCFH is not identified using a microscope. […]
(§9) To quantify the intracellular ROS, 5 × 10^5 HeLa cells have been seeded on a 6-well plate comprising cover slip and incubated overnight for attachment. […]
(§10) Culture cells on cover slips in 6‐well cell culture plates at a density around 5 x 10^5 cells/mL overnight in an incubator (5% carbon dioxide, 37 °C). […] The cells were immediately examined under a fluorescent microscope (Olympus, CKX-53, Japan), and the proportion of dead cells was calculated in at least three randomly chosen microscopic fields. […]
(§11) HeLa ells have been seeded in a 6-well plate (10^5 cells/well)) and cultured at 37 °C for 24 hours. […] Finally, apoptosis induction has been assessed using a flow cytometer (SYSMEX, Japan), and the data have been analyzed by Flow Jo software. […]

For data set [6], the system named is HeLa cancer cells. Kind of data set: Mitochondrial membrane potential, JC-1 staining. It is filed as cell-based, human. The note with it: IC50 concentration, 24 h. The method, then:
The mitochondrial dysfunction-mediated apoptosis was assayed via ROS generation. After the mitochondrial impairment, the mitochondrial membrane potential (MMP) is reduced and the same was examined using JC-1 fluorescence dye. The dye is used to assay the MMP to determine mitochondrial viability. Proapoptotic factors and other apoptotic inducing features were produced by mitochondria, which serves to be a significant role for apoptosis. […] In the control group (Figure 7A), JC-1 accumulates and produces a red fluorescence correlating to a high MMP.
(§12) Reactive Oxygen Species (ROS) Assay
as §9, §10, §11

Another data set relates to caspase-8. In words: Caspase activity assay, caspase-8 in HeLa cells. In kind it is cell-based, human. The note with it: IC50 concentration, 12 and 24 h.
From the text: (§13) The apoptotic mode of cancer cell death was further substantiated by caspase activation by ELISA analysis. In eukaryotes, caspases(protease enzymes) play a significant role in induction, transduction, and amplification of intracellular apoptotic signals. Based on the amino acid composition, caspases are divided into three sub-families, namely, […], executioner, and mediator caspases.[37] Most importantly, the initiator and executioner caspases get involved in the apoptotic signaling cascade. Caspase-8 and -9 are the initiators of the extrinsic and intrinsic pathways of apoptosis, respectively. Both mechanisms converge in the activation of the executioner caspase-3.[38]
as §12, §9, §10
(§14) The caspase activity assay was determined by a chromogenic assay using caspase-3 (Calbiochem, Merck), caspase-8 and 9 (Chemicon International Inc.) colorimeter activity assay kits. […]

The next data set has as its system caspase-3. Kind of data set: Caspase activity assay, caspase-3 in HeLa cells. In kind it is cell-based, human. The note with it: IC50 concentration, 12 and 24 h.
From the text: as §13, §12, §9, §10, §14

For another data set, the system named is caspase-9. In words: Caspase activity assay, caspase-9 in HeLa cells. The note with it: IC50 concentration, 12 and 24 h. In kind it is cell-based, human.
From the text: as §13, §12, §9, §10, §14

Where [7] appears, read: Homo sapiens, HeLa, 24 h incubation, read-out: IC50 HeLa 24 h.
Where [8] appears, read: Homo sapiens, HeLa, 48 h incubation, read-out: IC50 HeLa 48 h.
Setting [9] is: Homo sapiens, HT-29, 24 h incubation, read-out: IC50 HT-29 24 h.
Where [10] appears, read: Homo sapiens, HT-29, 48 h incubation, read-out: IC50 HT-29 48 h.
The mark [11] stands for this setting: Mus musculus, L929, 24 h incubation, read-out: IC50 L929 24 h.
Setting [12] is: Mus musculus, L929, 48 h incubation, read-out: IC50 L929 48 h.
Setting [13] is: 24 h incubation, read-out: IC50 HeLa 24 h.
[14] abbreviates: 48 h incubation, read-out: IC50 HeLa 48 h.
[15] abbreviates: 24 h incubation, read-out: IC50 HT-29 24 h.
Where [16] appears, read: 48 h incubation, read-out: IC50 HT-29 48 h.
[17] abbreviates: 24 h incubation, read-out: IC50 L929 24 h.
[18] abbreviates: 48 h incubation, read-out: IC50 L929 48 h.
Where [19] appears, read: n-octanol-water system, shake-flask, UV-visible.

Like-named read-outs stand apart in the source and are kept apart here.

Consider `O=C(N/N=C1/CCCc2c1[nH]c1ccccc21)c1ccccc1` [L1], for which the IC50 in data set [1] (setting [7]), in data set [1] (setting [8]), in data set [2] (setting [9]), in data set [2] (setting [10]), in [3] (setting [11]) and in data set [3] (setting [12]) was over 100 µM in each case.
For `COc1ccc(C(=NN=C2CCCc3c2[nH]c2ccccc32)[O][Ni][O]C(=NN=C2CCCc3c2[nH]c2ccccc32)c2ccc(OC)cc2)cc1` [complex 4, [Ni(L3)2]], the IC50 in [1] (setting [13]) is 43.39 ± 0.21 µM; in data set [1] (setting [14]) it was 28.2 ± 0.32 µM; in data set [2] (setting [15]), 57.42 ± 0.09 µM; in data set [2] (setting [16]) it was 41.2 ± 1.28 µM; in [3] (setting [17]), 275.8 ± 0.35 µM; in [3] (setting [18]) it was 269.1 ± 1.1 µM. Further, the “log P” value in [4] (setting [19]) amounted to 1.95 ± 0.05. The “% of fluorescence intensity, reactive oxygen species (DCFH-DA)” value in the data set with HeLa cancer cells [5] amounted to 80%. Besides, the “Mitochondrial membrane potential (JC-1 fluorescence)” value in the data set with HeLa cancer cells [6] is “decrease in MMP”. The “Expression of caspase-8” value in the data set with caspase-8 is listed as “efficiently upregulated”. In addition, the “Caspase-3 activity versus control cells” value in the data set on caspase-3 is “time-dependent increase”. Moreover, the “Caspase-9 activity versus control cells” value in the data set with caspase-9 is “time-dependent increase”.
On to `Clc1ccc(C(=NN=C2CCCc3c2[nH]c2ccccc32)[O][Ni][O]C(=NN=C2CCCc3c2[nH]c2ccccc32)c2ccc(Cl)cc2)cc1` [complex 3, [Ni(L2)2]], for which the IC50 came out at 45.4 ± 0.72 µM in data set [1] (setting [13]); 32.8 ± 1.19 µM in [1] (setting [14]); 59.2 ± 0.64 µM in data set [2] (setting [15]); 50.8 ± 1.11 µM in [2] (setting [16]); 253.1 ± 0.61 µM in data set [3] (setting [17]); 247.4 ± 0.28 µM in [3] (setting [18]). Also, in data set [4], the “log P” value is 1.57 ± 0.12.
In the case of `N.N.[Cl][Pt][Cl]` [cisplatin, reference compound], the IC50 in data set [1] (setting [13]) is 28.04 ± 0.18 µM; in data set [1] (setting [14]), 12.4 ± 1.81 µM; in data set [2] (setting [15]), 34.3 ± 1.45 µM; in data set [2] (setting [16]), 14.3 ± 1.57 µM; in data set [3] (setting [17]), 146.5 ± 0.79 µM; in data set [3] (setting [18]) it was 141.2 ± 0.37 µM.
In the case of `COc1ccc(C(=O)N/N=C2/CCCc3c2[nH]c2ccccc32)cc1` [L3], the IC50 in data set [1] (setting [7]) is over 100 µM; in data set [1] (setting [8]), 73.4 ± 0.82 µM; in [2] (setting [9]) it was over 100 µM; in [2] (setting [10]), 81.7 ± 1.09 µM; in data set [3] (setting [11]), over 100 µM; in data set [3] (setting [12]), over 100 µM.
Consider `O=C(N/N=C1/CCCc2c1[nH]c1ccccc21)c1ccc(Cl)cc1` [L2], for which the IC50 in [1] (setting [7]) is over 100 µM; in data set [1] (setting [8]) it was 86.2 ± 1.12 µM; in data set [2] (setting [9]) it was over 100 µM; in data set [2] (setting [10]), 94 ± 1.27 µM; in data set [3] (setting [11]), over 100 µM; in data set [3] (setting [12]) it was over 100 µM.
As to `c1ccc(C(=NN=C2CCCc3c2[nH]c2ccccc32)[O][Ni][O]C(=NN=C2CCCc3c2[nH]c2ccccc32)c2ccccc2)cc1` [complex 2, [Ni(L1)2]], the IC50 in [1] (setting [13]) amounted to 49.3 ± 1.05 µM; in [1] (setting [14]) it was 40.12 ± 0.09 µM; in data set [2] (setting [15]), 68.59 ± 0.27 µM; in data set [2] (setting [16]), 61.25 ± 0.47 µM; in data set [3] (setting [17]), 248.1 ± 1.12 µM; in data set [3] (setting [18]), 236.3 ± 1.45 µM. Further, the “log P” value in data set [4] (setting [19]) is given as 0.86 ± 0.14.

By IC50 is commonly meant the point on the concentration scale where inhibition reaches its midpoint. As a reminder, the log P is a log measure of how a compound divides between an organic and an aqueous phase. The low end stands for lower lipophilicity, the high end for higher lipophilicity.
